Source: patent US20120027720A1, “PEPTIDE CONJUGATES” (priority 2008, published 2012)
Where no end group is shown, it is not given here. [ ]: non-standard residue; d: D form. 2Thi = N[C@@H](Cc1cccs1)C(=O)O; AllylGly = C=CC[C@H](N)C(=O)O; hSer = N[C@@H](CCO)C(=O)O; Abu = CC[C@H](N)C(=O)O

Experiments:
Assay type in all cases: cell-based
[1] = tested on: CaCo2 monolayers; assay: Trans Epithelial Electric Resistance (TEER) across cell monolayer; parameters: key to Reduced TEER: + indicates an enhancement of the permeability of the tight junctions were observed; − indicates no enhancement of permeability was observed; settings: Caco-2 monolayer
Summary of the method: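 Caco-2 cells, passage 40-60, grown 21-28 days on Transwell filters, equilibrated 30 min at 37° C in MHBSS pH 7.4. Test compound with Lucifer Yellow applied apically (n=3), incubated at 37° C with 50 RPM shaking; TEER measured at baseline and at 30, 60, 120 and 180 min.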

[2] = tested on: CaCo2 monolayers; assay: Epithelial flux of Lucifer Yellow through cell monolayer; parameters: key to Enhanced LY permeability: + indicates an enhancement of the permeability of the tight junctions were observed; − indicates no enhancement of permeability was observed; settings: Lucifer Yellow flux, Caco-2 monolayer
Summary of the method: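 Caco-2 cells (passage 40-60) grown 21-28 days on Transwell filters, equilibrated 30 min at 37 °C in HBSS-HEPES pH 7.4; Lucifer Yellow with test compound applied apically, n=3 filters. Basolateral samples at 60, 120, 180 min read by fluorescence at 485/535 nm against standard curve; TEER also measured.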

[3] = tested on: IEC6 cells; assay: Real-Time Cell Electronic Sensing (RT-CES, ACEA) assay of cell morphology change; parameters: key: + indicates an enhancement of the permeability of the tight junctions were observed; − indicates no enhancement of permeability was observed; settings: peptide at 5 mg/mL
Source text: Agonists of tight junctions can be identified by their ability to induce changes in morphology of cells in a monolayer of cells that comprise tight junctions. Such changes in the morphology of IEC6 cells may be measured using a Real-Time Cell Electronic Sensing protocol as described below.
Tight junction agonists can be identified using the following method an used in peptide conjugates of the invention:
Materials: cells: IEC6 passage 30-50, medium: DMEM 10% no calcium no magnesium, foetal bovine serum 0.1 unit per ml bovine insulin, buffers: phosphate buffered saline (PBS) no calcium no magnesium, trypsin: 0.25% porcine trypsin in HBSS no calcium no magnesium, flasks: 100×20 mm Tissue culture dish Falcon, plates: 16× E-Plate, machine: RT-CES™ 16× system (ACEA Biosciences, Inc., San Diego, Calif.)
Wash a 75 cm^2 flask of confluent IEC6 cells twice with 25 ml of PBS.
Add 2.5 ml of trypsin to the flask and place back in the incubator at 37° C.
Wash cells from the surface of the flask with 10 ml of serum containing media to quench the trypsin.
Pellet the cells by centrifugation at 1500 rpm for 5 minutes aspirate the media.
Resuspend the cell pellet in 10 ml of serum free media and centrifuge at 1500 rpm for 5 minutes aspirate the media and repeat for a total of 5 washes.
Take 100 μl of cells and mix with 100 μl of trypan blue.
Count the cells four times and use the average cell concentration.
Dilute the cells to 1×10^6 per ml in serum free media.
Add 100 μl of serum free media to each well of the ACEA plates to be used.
Insert the ACEA plate and press scan.
Run step 1 of the program to measure background.
Add 50 μl of cells to each well of the ACEA plate tap each slide of the plate 10 times and place the cells on the bench for 15 minutes to allow the cells to settle.
Insert the ACEA plate and run the scan step to check connections and run step 2-1 and 2-2 overnight.
Step 2-1 sample every 2 minutes 30 times.
Step 2-2 sample every 15 minutes 100 times.
The cell indices should be between 6-10 after the overnight run and should have reached a plateau.
Remove 100 μl of media carefully from each well.
Make up the compounds to be tested so that 50 μl contains 2× the desired final concentration.
Add 50 μl of compounds to the designated wells.
Scan the plate to check connections.
Step 3-1 sample every 2 minutes 30 times.
Step 3-2 sample every 15 minutes 100 times.

Substance: 10 (FCIGR; also: peptide conjugate) [compound 10]
- Reduced TEER [1]: +
- Enhanced LY permeability [2]: +
- ACEA 5 mg/mL [3]: +

Substance: 11 (FCIG; also: peptide conjugate) [compound 11]
- Reduced TEER [1]: −
- ACEA 5 mg/mL [3]: +

Substance: 25 (L[dR]GICF; not fully specified; printed as Leu-D-Arg-Gly-Ile-Cys-Phe) [compound 25]
- Reduced TEER [1]: −
- Enhanced LY permeability [2]: −
- ACEA 5 mg/mL [3]: +

Substance: 6 (FCIGAL; not fully specified; printed as Phe-Cys-Ile-Gly-Ala-Leu) [compound 6]
- Reduced TEER [1]: −
- Enhanced LY permeability [2]: −
- ACEA 5 mg/mL [3]: +

Substance: 15 (FCIG[dR]L; also: peptide conjugate) [compound 15]
- Reduced TEER [1]: −
- Enhanced LY permeability [2]: −
- ACEA 5 mg/mL [3]: +

Substance: 3 (FAIGRL; not fully specified; printed as Phe-Ala-Ile-Gly-Arg-Leu) [compound 3]
- Reduced TEER [1]: −
- Enhanced LY permeability [2]: −
- ACEA 5 mg/mL [3]: −

Substance: 2 (ACIGRL; not fully specified; printed as Ala-Cys-Ile-Gly-Arg-Leu) [compound 2]
- Reduced TEER [1]: −
- Enhanced LY permeability [2]: −
- ACEA 5 mg/mL [3]: +

Substance: 18 ([dL][dR]G[dI][dC]F; not fully specified; printed as D-Leu-D-Arg-Gly-D-Ile-D-Cys-Phe) [compound 18]
- Reduced TEER [1]: +
- Enhanced LY permeability [2]: +
- ACEA 5 mg/mL [3]: +

Substance: 8 (CIGRL; not fully specified; printed as Cys-Ile-Gly-Arg-Leu) [compound 8]
- Reduced TEER [1]: −
- Enhanced LY permeability [2]: −
- ACEA 5 mg/mL [3]: −

Substance: 142 (H-F[Abu]IGRL-OH; SMILES CC[C@H](NC(=O)[C@@H](N)Cc1ccccc1)C(=O)N[C@H](C(=O)NCC(=O)N[C@@H](CCCNC(=N)N)C(=O)N[C@@H](CC(C)C)C(=O)O)[C@@H](C)CC) [compound 142]
- Reduced TEER [1]: −
- Enhanced LY permeability [2]: −

Substance: 37 ([dL][dR]GICF; not fully specified; printed as D-Leu-D-Arg-Gly-Ile-Cys-Phe) [compound 37]
- Reduced TEER [1]: −
- Enhanced LY permeability [2]: −

Substance: 207 (F[AllylGly]SGRL-NH2; N-terminus assumed; SMILES C=CC[C@H](NC(=O)[C@@H](N)Cc1ccccc1)C(=O)N[C@@H](CO)C(=O)NCC(=O)N[C@@H](CCCNC(=N)N)C(=O)N[C@@H](CC(C)C)C(N)=O) [compound 207]
- Reduced TEER [1]: +
- Enhanced LY permeability [2]: +

Substance: 169 (Ac-F[hSer]IGR-NH2; also: peptide conjugate) [compound 169]
- Reduced TEER [1]: −
- Enhanced LY permeability [2]: −

Substance: 140 (H-F[2Thi]IGRL-OH; SMILES CC[C@H](C)[C@H](NC(=O)[C@H](Cc1cccs1)NC(=O)[C@@H](N)Cc1ccccc1)C(=O)NCC(=O)N[C@@H](CCCNC(=N)N)C(=O)N[C@@H](CC(C)C)C(=O)O) [compound 140]
- Reduced TEER [1]: −
- Enhanced LY permeability [2]: −

Substance: 116 (FMIGRL; also: peptide conjugate) [compound 116]
- Reduced TEER [1]: −
- Enhanced LY permeability [2]: −

Substance: 9 (IGRL; not fully specified; printed as Ile-Gly-Arg-Leu) [compound 9]
- Reduced TEER [1]: −
- Enhanced LY permeability [2]: −
